Target: T1, human PPARα (Homo sapiens, UniProt Q07869)
T1 construct: host or cells: proprietary non-human mammalian cells
T1 sequence (Q07869 1-468): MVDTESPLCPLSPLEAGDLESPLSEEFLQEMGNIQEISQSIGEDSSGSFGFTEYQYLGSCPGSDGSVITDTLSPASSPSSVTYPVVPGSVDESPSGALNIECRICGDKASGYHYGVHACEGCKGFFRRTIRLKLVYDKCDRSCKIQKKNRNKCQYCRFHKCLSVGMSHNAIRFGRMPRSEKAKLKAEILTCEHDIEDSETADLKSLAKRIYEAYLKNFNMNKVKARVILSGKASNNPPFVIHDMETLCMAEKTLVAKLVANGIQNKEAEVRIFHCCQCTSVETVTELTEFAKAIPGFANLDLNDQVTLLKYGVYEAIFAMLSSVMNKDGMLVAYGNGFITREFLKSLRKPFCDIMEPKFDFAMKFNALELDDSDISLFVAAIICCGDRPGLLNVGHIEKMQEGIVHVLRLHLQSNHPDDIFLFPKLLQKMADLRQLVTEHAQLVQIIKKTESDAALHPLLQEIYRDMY
Assay: Human PPARα Reporter Assay (luciferase, Indigo Biosciences)
Type: cell-based
Details: antagonism; luciferase reporter cells, overnight incubation; read-out: PPARα IC50
Method: Human PPARα Reporter Assay
The screening of test compounds for agonist or antagonist activities against human PPARα receptors was performed using a commercial kit, Human PPARα Reporter Assay System (Indigo Biosciences, Cat. #IB00111).
This nuclear receptor assay system utilizes proprietary non-human mammalian cells engineered to provide constitutive, high-level expression of Human PPARα. Because these cells incorporate a PPARα-responsive luciferase reporter gene, quantifying expressed luciferase activity provides a sensitive surrogate measure of PPARα activity in the treated cells. The primary application of this reporter assay system is in the screening of test samples to quantify any functional activity, either agonist or antagonist, that they may exert against human PPARα.
Briefly, reporter cells are dispensed into wells of the assay plate and then immediately dosed with test compounds. Following an overnight incubation, the treatment media is discarded and Luciferase Detection Reagent (LDR) is added. The intensity of light emission from the ensuing luciferase reaction provides a sensitive measure that is directly proportional to the relative level of PPARα activation in the reporter cells.

| SMILES | IC50 |
| --- | --- |
| CC(C)(Oc1ccc(CCCC2=NN(Cc3ccc(C(C)(C)C)cc3)C(=O)C23CCCC3)cc1)C(=O)O [Example 23, 2-(4-(3-(3-(4-(tert-butyl)benzyl)-4-oxo-2,3-diazaspiro[4,4]non-1-en-1-yl)propyl)phenoxy)-2-methylpropanoic acid] | 13 nM |
| CC(C)(Oc1ccc(CCCC2=NN(c3ccc(C(F)(F)F)cc3)C(=O)C23CCCC3)cc1)C(=O)NS(=O)(=O)c1ccccc1 [Example 25, 2-methyl-2-(4-(3-(4-oxo-3-(4-(trifluoromethyl)phenyl)-2,3-diazaspiro[4,4]non-1-en-1-yl)propyl)phenoxy)-N-(phenylsulfonyl)propanamide] | 1 nM |
| CC(C)(Oc1ccc(CCCC2=NN(c3ccc(C(F)(F)F)cc3)C(=O)C23CCCC3)cc1)C(=O)NC1CC1 [Example 26, N-cyclopropyl-2-methyl-2-(4-(3-(4-oxo-3-(4-(trifluoromethyl)phenyl)-2,3-diazaspiro[4,4]non-1-en-1-yl)propyl)phenoxy)propanamide] | 110 nM |
| CC(C)(Oc1ccc(CCCC2=NN(c3ccc(OC(F)(F)F)cc3)C(=O)C23CCCC3)cc1)C(=O)NCC(F)(F)F [Example 30, 2-methyl-2-(4-(3-(4-oxo-3-(4-(trifluoromethoxy)phenyl)-2,3-diazaspiro[4,4]non-1-en-1-yl)propyl)phenoxy)-N-(2,2,2-trifluoroethyl)propanamide] | 710 nM |
| Cc1ccc(N2N=C(CCCc3ccc(OC(C)(C)C(=O)O)cc3)C3(CCCC3)C2=O)cc1C [Example 31, 2-(4-(3-(3-(3,4-dimethylphenyl)-4-oxo-2,3-diazaspiro[4,4]non-1-en-1-yl)propyl)phenoxy)-2-methylpropanoic acid] | 2.6 nM |

More lines, in order of falling IC50, values ahead:

| IC50 | SMILES |
| --- | --- |
| 500 nM | Cc1ccc(N2N=C(CCCc3ccc(OC(C)(C)C(=O)NCC(F)(F)F)cc3)C3(CCCC3)C2=O)cc1C [Example 33, 2-(4-(3-(3-(3,4-dimethylphenyl)-4-oxo-2,3-diazaspiro[4,4]non-1-en-1-yl)propyl)phenoxy)-2-methyl-N-(2,2,2-trifluoroethyl)propanamide] |
| 410 nM | CC(C)(Oc1ccc(CCCC2=NN(c3ccc(C(F)(F)F)cc3)C(=O)C23CCCC3)cc1)C(=O)NCC(F)(F)F [Example 27, 2-methyl-2-(4-(3-(4-oxo-3-(4-(trifluoromethyl)phenyl)-2,3-diazaspiro[4,4]non-1-en-1-yl)propyl)phenoxy)-N-(2,2,2-trifluoroethyl)propanamide] |
| 250 nM | Cc1ccc(N2N=C(CCCc3ccc(OC(C)(C)C(=O)NC4CC4)cc3)C3(CCCC3)C2=O)cc1C [Example 32, N-cyclopropyl-2-(4-(3-(3-(3,4-dimethylphenyl)-4-oxo-2,3-diazaspiro[4,4]non-1-en-1-yl)propyl)phenoxy)-2-methylpropanamide] |
| 69 nM | CC(C)(Oc1ccc(CCCC2=NN(c3ccc(OC(F)(F)F)cc3)C(=O)C23CCCC3)cc1)C(=O)NC1CC1 [Example 29, N-cyclopropyl-2-methyl-2-(4-(3-(4-oxo-3-(4-(trifluoromethoxy)phenyl)-2,3-diazaspiro[4,4]non-1-en-1-yl)propyl)phenoxy)propanamide] |
| 1.4 nM | CC(C)(Oc1ccc(CCCC2=NN(c3ccc(C(F)(F)F)cc3)C(=O)C23CCCC3)cc1)C(=O)O [Example 24, 2-methyl-2-(4-(3-(4-oxo-3-(4-(trifluoromethyl)phenyl)-2,3-diazaspiro[4,4]non-1-en-1-yl)propyl)phenoxy)propanoic acid] |
| 0.97 nM | CC(C)(Oc1ccc(CCCC2=NN(c3ccc(OC(F)(F)F)cc3)C(=O)C23CCCC3)cc1)C(=O)O [Example 28, 2-methyl-2-(4-(3-(4-oxo-3-(4-(trifluoromethoxy)phenyl)-2,3-diazaspiro[4,4]non-1-en-1-yl)propyl)phenoxy)propanoic acid] |
| 0.9 nM | CC(C)(Oc1ccc(CCCC2=NN(c3ccc(C(F)(F)F)cc3)C(=O)C2(C)C)cc1)C(=O)NS(=O)(=O)c1ccccc1 [Example 22, 2-(4-(3-(4,4-dimethyl-5-oxo-1-(4-(trifluoromethyl)phenyl)-4,5-dihydro-1H-pyrazol-3-yl)propyl)phenoxy)-2-methyl-N-(phenylsulfonyl)propanamide] |

Reference: patent US9862708B2, “Pyrazolone compounds and uses thereof” (Tempest Therapeutics, Inc., priority 2014, dated 2018)
